Values of other authors, collected in patent US20240156825A1, “USE OF SELECTIVE VEGFR2 AND FGFR1 INHIBITORS” (Fountain Therapeutics Inc., priority 2022, published 2024).
pIC50: −log10 of the molar value. Where two headings read alike, the source gives them in different places.

Legend:
any gene target = conditions: next lowest IC50 value to any gene target, read-out: Min IC50_μM, cited from earlier work
VEGFR2 = VEGFR2 (Homo sapiens, UniProt P35968); conditions: reported IC50 to VEGFR2, read-out: VEGFR2 IC50_μM, cited from earlier work
[1] = Table 3, selective inhibitors of VEGFR2

VEGFR2, sequence (P35968 20-1356, species assumed): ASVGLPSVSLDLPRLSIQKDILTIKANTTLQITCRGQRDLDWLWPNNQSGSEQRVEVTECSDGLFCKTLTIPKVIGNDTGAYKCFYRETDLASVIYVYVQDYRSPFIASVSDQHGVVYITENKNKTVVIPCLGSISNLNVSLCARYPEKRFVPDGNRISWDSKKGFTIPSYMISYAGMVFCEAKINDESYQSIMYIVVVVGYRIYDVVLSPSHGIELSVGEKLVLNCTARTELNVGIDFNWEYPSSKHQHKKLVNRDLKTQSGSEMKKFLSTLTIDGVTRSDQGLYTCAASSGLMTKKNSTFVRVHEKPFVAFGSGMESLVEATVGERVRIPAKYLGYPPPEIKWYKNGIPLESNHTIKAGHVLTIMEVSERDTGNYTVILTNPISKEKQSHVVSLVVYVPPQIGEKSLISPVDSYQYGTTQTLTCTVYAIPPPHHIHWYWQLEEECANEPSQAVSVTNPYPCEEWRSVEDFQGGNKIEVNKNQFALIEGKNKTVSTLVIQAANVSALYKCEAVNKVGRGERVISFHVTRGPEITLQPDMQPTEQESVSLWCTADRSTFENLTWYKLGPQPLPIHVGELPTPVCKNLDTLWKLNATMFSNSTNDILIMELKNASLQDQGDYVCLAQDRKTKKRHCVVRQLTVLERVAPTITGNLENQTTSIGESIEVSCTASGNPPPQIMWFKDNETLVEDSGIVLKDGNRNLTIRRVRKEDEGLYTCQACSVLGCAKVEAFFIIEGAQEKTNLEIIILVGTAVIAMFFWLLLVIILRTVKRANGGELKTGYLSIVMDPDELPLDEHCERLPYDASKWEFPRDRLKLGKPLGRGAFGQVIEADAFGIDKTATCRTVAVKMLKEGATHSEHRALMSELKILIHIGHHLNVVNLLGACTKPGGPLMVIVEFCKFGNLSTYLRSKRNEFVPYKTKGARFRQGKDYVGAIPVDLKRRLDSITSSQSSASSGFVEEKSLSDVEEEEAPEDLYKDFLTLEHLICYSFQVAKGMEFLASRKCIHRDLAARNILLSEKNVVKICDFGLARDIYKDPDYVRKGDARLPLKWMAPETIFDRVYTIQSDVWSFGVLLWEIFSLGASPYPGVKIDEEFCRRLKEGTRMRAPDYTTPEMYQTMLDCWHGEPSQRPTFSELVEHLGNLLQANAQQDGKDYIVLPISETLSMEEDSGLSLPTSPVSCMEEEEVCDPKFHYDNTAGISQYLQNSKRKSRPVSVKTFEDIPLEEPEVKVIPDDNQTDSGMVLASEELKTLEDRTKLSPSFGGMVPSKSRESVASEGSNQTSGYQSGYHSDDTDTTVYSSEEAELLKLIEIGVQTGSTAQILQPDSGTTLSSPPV

SMILES | pIC50 (any gene target) | pIC50 (VEGFR2) | pIC50 (any gene target; Table 3) | pIC50 (VEGFR2; [1])
CO/N=C(\C)c1ccc2c(c1)c1c3c(c4c(c1n2CC(C)C)CCc1nn(C)cc1-4)C(=O)NC3 [compound 44447890] | 8.10 | 8.40 | – | –
COc1cc(C2=C(c3cn(COCC[Si](C)(C)C)c4ccccc34)CNC2=O)cc(OC)c1OC [compound 24894886] | 5.35 | 5.51 | – | –
COc1cc2c(Nc3ccc(Cl)c(Cl)c3)ncnc2cc1OCCN1C(=O)c2ccccc2C1=O [compound 57802754] | 7.30 | 7.30 | – | –
COc1cc2c(Nc3c(F)cc(Br)cc3F)ncnc2cc1OCC1CCN(C)CC1 [compound 5329046] | 7.00 | 8.00 | – | –
COc1cc2nccc(Oc3ccc4c(C(N)=O)cccc4c3)c2cc1OC [compound 11474276] | 7.06 | 9.05 | – | –
COc1cc2c(Nc3cc(Cl)c(Br)cc3F)ncnc2cc1OC[C@@H]1CN2CCOC[C@H]2CO1 [compound 66838467] | – | – | 7.30 | 7.30
OCCCCNc1cncc(-c2cncc(Nc3cccc(Cl)c3)n2)c1 [compound 5330388] | 5.63 | 7.20 | – | –
COc1cc2nccc(Oc3ccc4c(C(=O)NC5CCC5)cccc4c3)c2cc1OC [compound 24824448] | 6.36 | 8.89 | – | –
CNc1cc2c(cn1)cc(-c1ccc(F)c(NC(=O)Nc3cc(C(C)(C)C)no3)c1)c(=O)n2[C@H]1CCOC1 [compound 122177477] | 9.00 | 9.34 | – | –
COc1cc2c(Nc3ccc(Cl)c(Cl)c3)ncnc2cc1OCc1nc2c(s1)CNCC2 [compound 53630967] | – | – | 7.30 | 7.30
COc1cc2c(Nc3ccc(Cl)c(Cl)c3)ncnc2cc1OCC1CN(C(=O)C2CCCC2)CCO1 (centres unmarked) [compound 57802868] | – | – | 7.30 | 7.30
Cc1[nH]nc2cc(N(C)c3ccnc(Nc4cccc(S(N)(=O)=O)c4)n3)ccc12 [compound 21956341] | 6.15 | 9.22 | – | –
COc1cc2c(Nc3ccc(Cl)c(Cl)c3F)ncnc2cc1OC[C@@H]1CN2CCOC[C@H]2CO1 [compound 66838539] | – | – | 7.30 | 7.30
C[C@@H](Nc1ncnc2[nH]c(-c3ccc(CNCCCCCC(=O)NO)cc3)cc12)c1ccccc1 [compound 24900643] | 7.00 | 7.00 | – | –
COc1cc2c(Nc3ccc(Br)c(Cl)c3Cl)ncnc2cc1OC[C@@H]1CN2CCOC[C@H]2CO1 [compound 66838558] | – | – | 7.30 | 7.30
COc1cc2c(Nc3cc(Cl)c(Cl)cc3F)ncnc2cc1OCC1CN(C)C(C)(C)CO1 (centres unmarked) [compound 57802853] | – | – | 7.30 | 7.30
COc1cc2c(Nc3ccc(Br)c(Cl)c3Cl)ncnc2cc1OC[C@@H]1CN2CCC[C@H]2CO1 [compound 57802722] | 7.30 | 7.30 | – | –
COc1cc2c(Nc3ccc(Cl)c(Cl)c3F)ncnc2cc1OCC1CN(C)C(C)(C)CO1 (centres unmarked) [compound 57802653] | 7.30 | 7.30 | – | –
COc1cc2c(Nc3ccc(Cl)c(Cl)c3F)ncnc2cc1OC[C@@H]1CN2CCC[C@H]2CO1 [compound 57802793] | – | – | 7.30 | 7.30
COc1cc2c(Nc3ccc(Br)c(Cl)c3F)ncnc2cc1OCC1CN(C)CCO1 (centres unmarked) [compound 57802566] | – | – | 7.30 | 7.30
COc1cc2c(Nc3cc(Cl)c(Cl)cc3F)ncnc2cc1OC[C@@H]1CN2CCOC[C@H]2CO1 [compound 66838463] | – | – | 7.30 | 7.30

SMILES | pIC50 (any gene target) | pIC50 (VEGFR2) | pIC50 (any gene target; Table 3) | pIC50 (VEGFR2; [1])
COc1cc2c(Nc3ccc(C)cc3F)ncnc2cc1OCC1CCN(C)CC1 [compound 5329042] | 7.19 | 7.60 | – | –
Cc1ccc(NC(=O)C2(C(=O)Nc3ccc(Nc4ncc(F)c(-c5cc(F)c6nc(C)n(C(C)C)c6c5)n4)cc3)CC2)cc1 [compound 155517777] | – | – | 7.34 | 7.34
COc1cc2c(Nc3cc(O)c(Cl)cc3F)ncnc2cc1OCC1CCN(C)CC1 [compound 73357210] | – | – | 8.52 | 8.52
COc1cc2c(Nc3ccc(Br)c(Cl)c3F)ncnc2cc1OC[C@H]1CN2CCOC[C@H]2CO1 [compound 10370400] | – | – | 7.30 | 7.30
COc1ccc2c(c1)/C(=C/c1cc3c([nH]1)CCN(C(=O)N1CCN(C)CC1)C3)C(=O)N2 [compound 71714231] | – | – | 8.22 | 8.22
COc1cc2c(Nc3ccc(F)c(Cl)c3F)ncnc2cc1OCC1CN(C)CCO1 (centres unmarked) [compound 57802680] | 7.30 | 7.30 | – | –
COc1ccc(-c2cnc3cncc(Nc4ccc(N5CCCCC5)cc4)c3n2)cc1 [compound 57332844] | 5.64 | 5.69 | – | –
CC(=O)Nc1ccc2c(c1)C(c1ccccc1Cl)=Nc1cn[nH]c1N2 [compound 136002662] | 7.42 | 7.48 | – | –
COc1cc2nccc(Oc3ccc4c(NC(=O)c5cccc(C(F)(F)F)c5)nn(C)c4c3)c2cc1OC [compound 11398307] | 7.35 | 9.00 | – | –
Nc1ccc2c(c1)C(c1ccccc1Cl)=Nc1cn[nH]c1N2 [compound 136002661] | 7.06 | 7.47 | – | –
COc1cc2c(Nc3cc(Cl)c(Br)cc3F)ncnc2cc1OCC1COCCN1C (centres unmarked) [compound 134154844] | – | – | 7.30 | 7.30
CCN1CCN(Cc2ccc(NC(=O)c3ccc(C)c(NC(=O)c4cncc(-c5cccs5)c4)c3)cc2C(F)(F)F)CC1 [compound 42628503] | – | – | 6.30 | 6.30
COc1cc2nccc(Oc3ccc4c(C(=O)NC(C)C)cccc4c3)c2cc1OC [compound 24822600] | 6.72 | 8.30 | – | –
COc1cc2c(Nc3ccc(Cl)c(Cl)c3)ncnc2cc1OCC1CN(C(=NC#N)N2CCCC2)CCO1 (centres unmarked) [compound 57802904] | – | – | 7.30 | 7.30
CCN1CCCCC1c1nc(COc2cc3ncnc(Nc4ccc(Cl)c(Cl)c4)c3cc2OC)no1 (centres unmarked) [compound 57802919] | – | – | 7.30 | 7.30
COc1cc(C2=C(c3cn(COC(C)(C)C)c4ccccc34)CNC2=O)cc(OC)c1OC [compound 24894992] | – | – | 5.36 | 5.36
COc1cc2c(Nc3ccc(Cl)c(Cl)c3)ncnc2cc1OCC1CN(S(C)(=O)=O)CCO1 (centres unmarked) [compound 57802901] | – | – | 7.30 | 7.30
CCN1CCOC(COc2cc3ncnc(Nc4ccc(Cl)c(Cl)c4)c3cc2OC)C1 (centres unmarked) [compound 57802737] | 7.30 | 7.30 | – | –
COc1ccc(Nc2ncc3c(n2)-c2ccccc2NC(=O)C3)cc1O [compound 16730105] | 6.19 | 7.14 | – | –
COc1cc2c(Nc3ccc(Br)cc3F)ncnc2cc1OCCCN1CCN(C)CC1 [compound 49860190] | 7.52 | 8.05 | – | –
CN1CCC(COc2ccc3c(Nc4ccc(NC(=O)Nc5cccc(F)c5)cc4)ncnc3c2)CC1 [compound 56835147] | 8.02 | 8.26 | – | –

SMILES | pIC50 (any gene target) | pIC50 (VEGFR2) | pIC50 (any gene target; Table 3) | pIC50 (VEGFR2; [1])
COc1cc2c(Nc3ccc(Br)cc3F)ncnc2cc1OC/C=C/CN1CCCC1 [compound 22478260] | 7.52 | 8.10 | – | –
CSc1cn2c(-c3cn[nH]c3)cnc2c(Nc2cc(C)ns2)n1 [compound 25094210] | 6.78 | 7.44 | – | –
COc1cc2c(Nc3ccc(Br)c(Cl)c3)ncnc2cc1OC1CCN(C)C1 (centres unmarked) [compound 57802786] | 7.30 | 7.30 | – | –
C[C@@H](Nc1ncnc2[nH]c(-c3ccc(CN4CCN(CCCCCCC(=O)NO)CC4)cc3)cc12)c1ccccc1 [compound 24900443] | 7.00 | 7.00 | – | –
C[C@@H](Nc1ncnc2[nH]c(-c3ccc(C(=O)NO)cc3)cc12)c1ccc(F)cc1 [compound 24900772] | – | – | 7.00 | 7.00
COc1cc2c(Nc3cc(Cl)c(Br)cc3F)ncnc2cc1OC[C@H]1CN2CCOC[C@H]2CO1 [compound 10030541] | – | – | 7.30 | 7.30
COc1cc2c(Nc3ccc(Cl)c(Cl)c3)ncnc2cc1OCc1csc(C2CCCN(C)C2)n1 (centres unmarked) [compound 57802607] | – | – | 7.30 | 7.30
C[C@@H](Nc1ncnc2[nH]c(-c3ccc(NC(=O)CCCC(=O)NO)cc3)cc12)c1ccccc1 [compound 24900574] | 7.00 | 7.00 | – | –
COc1cc2ncnc(Nc3ccc(F)cc3)c2cc1OCCCC(=O)NO [compound 127026070] | 5.87 | 6.42 | – | –
c1ccc2sc(-c3ccc(Nc4ncnc5[nH]ccc45)cc3)nc2c1 [compound 44564789] | 5.89 | 5.92 | – | –
COc1cc2c(Nc3ccc(C#N)cc3F)ncnc2cc1OC/C=C/CN1CCCC1 [compound 5329040] | 6.30 | 6.64 | – | –
COc1cc2c(Nc3ccc(Cl)cc3F)ncnc2cc1OCCN1CCOCC1 [compound 5329019] | 6.52 | 7.40 | – | –
COc1cc2c(Nc3ccc(Cl)c(Cl)c3)ncnc2cc1OCCC1CNC(C)(C)CO1 (centres unmarked) [compound 57802637] | 7.30 | 7.30 | – | –
COc1cc2c(Nc3ccc(Cl)c(Cl)c3)ncnc2cc1OCC1CN(CCCCCC#N)CCO1 (centres unmarked) [compound 57802611] | – | – | 7.30 | 7.30
COc1cc2c(Nc3ccc(Cl)c(Cl)c3)ncnc2cc1OCCC1CN(C)CC(C)(C)O1 (centres unmarked) [compound 57802732] | 7.30 | 7.30 | – | –
Cc1cn2c(-c3cn[nH]c3)cnc2c(Nc2cc(CN3CCCCC3)ns2)n1 [compound 25144294] | 7.92 | 8.40 | – | –
COc1cc2nccc(Oc3ccc4c(C(=O)NCC(F)(F)F)cccc4c3)c2cc1OC [compound 24823250] | 7.80 | 8.42 | – | –
COc1cc2c(Nc3ccc(Br)c(Cl)c3F)ncnc2cc1OC[C@@H]1CN(C)CC(=O)N1 [compound 57802892] | – | – | 7.30 | 7.30
CCN1CCC(c2nc(COc3cc4ncnc(Nc5ccc(Cl)c(Cl)c5)c4cc3OC)no2)CC1 [compound 58013796] | – | – | 7.30 | 7.30
